Assay results as given in PubChem BioAssay AID248 (DTP/NCI, 2004).
Where “and” joins values, the source holds several entries; their conditions need not be identical. Equal values may be shown once. Toxic doses and inconclusive results are not listed. No stated cut-off is given here; in the data, active means T/C of 150% or more; inactive means T/C below 125%. Numbered stars: 1 amine (or outer) side, 2 acyl side, 3 side chain; on linkers, the order of the positions; unused ones are H or OH. Bridge positions count the residues as written; N and C are the ends. Square brackets hold non-standard residues; d marks the D form. Peptide text beside a SMILES is read from it. I, II: the chains in the order shown. Actinocin(9to1) = Cc1c2oc3c(C)ccc(C(=O)[*:1])c3nc-2c(C(=O)[*:2])c(N)c1=O; aThr = C[C@H](O)[C@H](N)C(=O)O; NMeV = CN[C@H](C(=O)O)C(C)C; Sar = CNCC(=O)O

Test system: L1210 leukemia ip in BDF1 mice, survival T/C
Experiment: NCI In Vivo Anticancer Drug Screen. Data for tumor model L1210 Leukemia (intraperitoneal) in B6D2F1 (BDF1) mice
Conditions: higher = longer survival
In short: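 Tumor was transplanted into mice, which were then dosed with test compound or vehicle alone. Survival was recorded for each group, and the treated figure was expressed relative to the control figure.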

Measured: T/C

Cc1c2oc3c(C)ccc(C(=O)N[C@@H]4C(=O)N[C@H](C(C)C)C(=O)N5CCC[C@H]5C(=O)N(C)CC(=O)N(C)[C@@H](C(C)C)C(=O)O[C@H]4C)c3nc-2c(C(=O)N[C@@H]2C(=O)N[C@H](C(C)C)C(=O)N3CCC[C@H]3C(=O)N(C)CC(=O)N(C)[C@@H](C(C)C)C(=O)O[C@H]2C)c(N)c1=O (I: [aThr][dV]P[Sar][NMeV] / II: [aThr][dV]P[Sar][NMeV]; ester I:1-I:C, II:1-II:C; linker I:N-II:N via Actinocin(9to1))
inactive: endpoint: mean survival time, dose: 0.02 mg/kg/injection, schedule: Q04DX003 (ip), vehicle: water 102 % of control and 105 % of control | endpoint: mean survival time, dose: 0.03 mg/kg/injection, schedule: Q01DX009 (ip), vehicle: saline 111 % of control | endpoint: mean survival time, dose: 0.03 mg/kg/injection, schedule: Q04DX003 (ip), vehicle: water 105 % of control and 110 % of control | endpoint: mean survival time, dose: 0.05 mg/kg/injection, schedule: Q01DX009 (ip), vehicle: saline 111 % of control | endpoint: mean survival time, dose: 0.05 mg/kg/injection, schedule: Q04DX003 (ip), vehicle: other 103 % of control | endpoint: mean survival time, dose: 0.1 mg/kg/injection, schedule: Q01DX009 (ip), vehicle: saline + alcohol 103 % of control | endpoint: mean survival time, dose: 0.11 mg/kg/injection, schedule: Q01DX001 (ip), vehicle: saline 108 % of control | endpoint: mean survival time, dose: 0.12 mg/kg/injection, schedule: Q01DX Z (ip), vehicle: carboxymethylcellulose (CMC) 102 % of control | endpoint: mean survival time, dose: 0.13 mg/kg/injection, schedule: Q01DX009 (ip), vehicle: saline 103 % of control | endpoint: mean survival time, dose: 0.15 mg/kg/injection, schedule: Q02DX010 (ip), vehicle: carboxymethylcellulose (CMC) 104 % of control | endpoint: mean survival time, dose: 0.16 mg/kg/injection, schedule: Q01DX Z (ip), vehicle: carboxymethylcellulose (CMC) 94 % of control | endpoint: mean survival time, dose: 0.16 mg/kg/injection, schedule: Q## X032 (ip), vehicle: saline 107 % of control | endpoint: mean survival time, dose: 0.2 mg/kg/injection, schedule: Q01DX009 (ip), vehicle: saline 109 % of control | endpoint: mean survival time, dose: 0.22 mg/kg/injection, schedule: Q02DX010 (ip), vehicle: other 100 % of control | endpoint: mean survival time, dose: 0.23 mg/kg/injection, schedule: Q02DX010 (ip), vehicle: carboxymethylcellulose (CMC) 92 % of control | endpoint: mean survival time, dose: 0.24 mg/kg/injection, schedule: Q## X032 (ip), vehicle: saline 109 % of control | endpoint: mean survival time, dose: 0.3 mg/kg/injection, schedule: Q## X032 (ip), vehicle: saline 110 % of control | endpoint: mean survival time, dose: 1.0 mg/kg/injection, schedule: Q## X004 (ip), vehicle: saline 101 % of control | endpoint: mean survival time, dose: 0.7 micrograms/kg/injection, schedule: Q01DX009 (ip), vehicle: saline 100 % of control and 104 % of control | endpoint: mean survival time, dose: 0.8 micrograms/kg/injection, schedule: Q01DX Z (ip), vehicle: saline 104 % of control | endpoint: mean survival time, dose: 1.5 micrograms/kg/injection, schedule: Q01DX009 (ip), vehicle: saline 97 % of control and 104 % of control | endpoint: mean survival time, dose: 3.0 micrograms/kg/injection, schedule: Q01DX009 (ip), vehicle: saline 102 % of control and 104 % of control | endpoint: mean survival time, dose: 3.1 micrograms/kg/injection, schedule: Q01DX001 (ip), vehicle: saline 100 % of control | endpoint: mean survival time, dose: 3.2 micrograms/kg/injection, schedule: Q01DX Z (ip), vehicle: saline 107 % of control | endpoint: mean survival time, dose: 3.5 micrograms/kg/injection, schedule: Q01DX009 (ip), vehicle: saline 97 % of control | endpoint: mean survival time, dose: 3.5 micrograms/kg/injection, schedule: Q01DX Z (ip), vehicle: carboxymethylcellulose (CMC) 109 % of control | endpoint: mean survival time, dose: 4.0 micrograms/kg/injection, schedule: Q01DX009 (ip), vehicle: water 103 % of control and 106 % of control | endpoint: mean survival time, dose: 5.4 micrograms/kg/injection, schedule: Q01DX Z (ip), vehicle: carboxymethylcellulose (CMC) 111 % of control | endpoint: mean survival time, dose: 6.3 micrograms/kg/injection, schedule: Q01DX001 (ip), vehicle: saline 107 % of control | endpoint: mean survival time, dose: 12.0 micrograms/kg/injection, schedule: Q01DX006 (iv), vehicle: other 103 % of control | endpoint: mean survival time, dose: 12.0 micrograms/kg/injection, schedule: Q01DX Z (im), vehicle: other 103 % of control | endpoint: mean survival time, dose: 12.0 micrograms/kg/injection, schedule: Q01DX Z (sc), vehicle: other 105 % of control | endpoint: mean survival time, dose: 12.5 micrograms/kg/injection, schedule: Q01DX001 (ip), vehicle: saline 101 % of control | endpoint: mean survival time, dose: 12.5 micrograms/kg/injection, schedule: Q01DX009 (ip), vehicle: water 103 % of control | endpoint: mean survival time, dose: 17.0 micrograms/kg/injection, schedule: Q04DX002 (ip), vehicle: saline 97 % of control and 100 % of control | endpoint: mean survival time, dose: 20.0 micrograms/kg/injection, schedule: Q01DX015 (ip), vehicle: saline 108 % of control | endpoint: mean survival time, dose: 25.0 micrograms/kg/injection, schedule: Q01DX001 (ip), vehicle: saline 111 % of control | endpoint: mean survival time, dose: 25.0 micrograms/kg/injection, schedule: Q01DX009 (ip), vehicle: water 106 % of control | endpoint: mean survival time, dose: 25.0 micrograms/kg/injection, schedule: Q01DX Z (sc), vehicle: other 103 % of control | endpoint: mean survival time, dose: 35.0 micrograms/kg/injection, schedule: Q04DX002 (ip), vehicle: saline 103 % of control and 106 % of control | endpoint: mean survival time, dose: 40.0 micrograms/kg/injection, schedule: Q01DX Z (ip), vehicle: carboxymethylcellulose (CMC) 110 % of control | endpoint: mean survival time, dose: 50.0 micrograms/kg/injection, schedule: Q01DX001 (ip), vehicle: saline 109 % of control | endpoint: mean survival time, dose: 50.0 micrograms/kg/injection, schedule: Q01DX009 (ip), vehicle: water 105 % of control | endpoint: mean survival time, dose: 50.0 micrograms/kg/injection, schedule: Q01DX Z (oral), vehicle: other 111 % of control | endpoint: mean survival time, dose: 60.0 micrograms/kg/injection, schedule: Q01DX Z (ip), vehicle: carboxymethylcellulose (CMC) 100 % of control | endpoint: mean survival time, dose: 64.0 micrograms/kg/injection, schedule: Q01DX001 (ip), vehicle: clinical formulation 107 % of control | endpoint: mean survival time, dose: 64.0 micrograms/kg/injection, schedule: Q01DX001 (ip), vehicle: saline 104 % of control | endpoint: mean survival time, dose: 64.0 micrograms/kg/injection, schedule: Q01DX009 (ip), vehicle: clinical formulation 103 % of control | endpoint: mean survival time, dose: 70.0 micrograms/kg/injection, schedule: Q04DX002 (ip), vehicle: saline 109 % of control | endpoint: mean survival time, dose: 100.0 micrograms/kg/injection, schedule: Q01DX001 (ip), vehicle: saline 109 % of control | endpoint: mean survival time, dose: 100.0 micrograms/kg/injection, schedule: Q01DX009 (ip), vehicle: saline + alcohol 103 % of control | endpoint: mean survival time, dose: 100.0 micrograms/kg/injection, schedule: Q01DX Z (ip), vehicle: other 101 % of control | endpoint: mean survival time, dose: 100.0 micrograms/kg/injection, schedule: Q01DX Z (oral), vehicle: other 107 % of control | endpoint: mean survival time, dose: 128.0 micrograms/kg/injection, schedule: Q01DX001 (ip), vehicle: clinical formulation 109 % of control | endpoint: mean survival time, dose: 128.0 micrograms/kg/injection, schedule: Q01DX001 (ip), vehicle: saline 109 % of control | endpoint: mean survival time, dose: 140.0 micrograms/kg/injection, schedule: Q04DX002 (ip), vehicle: saline 93 % of control and 102 % of control | endpoint: mean survival time, dose: 280.0 micrograms/kg/injection, schedule: Q04DX002 (ip), vehicle: saline 106 % of control | endpoint: mean survival time, dose: 512.0 micrograms/kg/injection, schedule: Q04DX003 (ip), vehicle: water 100 % of control | endpoint: mean survival time, dose: 570.0 micrograms/kg/injection, schedule: Q04DX002 (ip), vehicle: saline 100 % of control | endpoint: median survival time, dose: 0.01 mg/kg/injection, schedule: Q01DX009 (ip), vehicle: water 107 % of control | endpoint: median survival time, dose: 0.02 mg/kg/injection, schedule: Q01DX009 (ip), vehicle: water 109 % of control (2×) and 110 % of control | endpoint: median survival time, dose: 0.03 mg/kg/injection, schedule: Q04DX003 (ip), vehicle: water 100 % of control | endpoint: median survival time, dose: 0.05 mg/kg/injection, schedule: Q01DX001 (ip), vehicle: saline 98 % of control | endpoint: median survival time, dose: 0.05 mg/kg/injection, schedule: Q01DX002 (ip), vehicle: saline 111 % of control | endpoint: median survival time, dose: 0.06 mg/kg/injection, schedule: Q01DX001 (ip), vehicle: water 100 % of control | endpoint: median survival time, dose: 0.06 mg/kg/injection, schedule: Q04DX003 (ip), vehicle: water 107 % of control | endpoint: median survival time, dose: 0.06 mg/kg/injection, schedule: Q08DX002 (ip), vehicle: water 94 % of control | endpoint: median survival time, dose: 0.08 mg/kg/injection, schedule: Q01DX009 (ip), vehicle: water 108 % of control | endpoint: median survival time, dose: 0.1 mg/kg/injection, schedule: Q01DX001 (ip), vehicle: saline 102 % of control | endpoint: median survival time, dose: 0.12 mg/kg/injection, schedule: Q01DX001 (ip), vehicle: water 111 % of control | endpoint: median survival time, dose: 0.12 mg/kg/injection, schedule: Q08DX002 (ip), vehicle: water 105 % of control | endpoint: median survival time, dose: 0.2 mg/kg/injection, schedule: Q01DX001 (ip), vehicle: saline 109 % of control | endpoint: median survival time, dose: 0.4 mg/kg/injection, schedule: Q01DX001 (ip), vehicle: saline 111 % of control | endpoint: median survival time, dose: 0.5 mg/kg/injection, schedule: Q04DX003 (ip), vehicle: water 96 % of control | endpoint: median survival time, dose: 4.0 micrograms/kg/injection, schedule: Q03HX016 (ip), vehicle: water 94 % of control | endpoint: median survival time, dose: 8.0 micrograms/kg/injection, schedule: Q03HX008 (ip), vehicle: water 100 % of control | endpoint: median survival time, dose: 8.0 micrograms/kg/injection, schedule: Q03HX016 (ip), vehicle: water 111 % of control | endpoint: median survival time, dose: 16.0 micrograms/kg/injection, schedule: Q03HX008 (ip), vehicle: water 111 % of control | endpoint: median survival time, dose: 16.0 micrograms/kg/injection, schedule: Q03HX016 (ip), vehicle: water 100 % of control | endpoint: median survival time, dose: 31.0 micrograms/kg/injection, schedule: Q03HX016 (ip), vehicle: water 100 % of control | endpoint: median survival time, dose: 200.0 micrograms/kg/injection, schedule: Q01DX009 (ip), vehicle: saline 93 % of control
